This note sets out measurements from ChEMBL document CHEMBL1133595, “Discovery of chiral N,N-disubstituted trifluoro-3-amino-2-propanols as potent inhibitors of cholesteryl ester transfer protein” (J Med Chem, 2000).

Each structure is given as a SMILES string.

In the first experiment the target is T1, Cholesteryl ester transfer protein (Homo sapiens, UniProt P11597).
T1 sequence (P11597 whole entry): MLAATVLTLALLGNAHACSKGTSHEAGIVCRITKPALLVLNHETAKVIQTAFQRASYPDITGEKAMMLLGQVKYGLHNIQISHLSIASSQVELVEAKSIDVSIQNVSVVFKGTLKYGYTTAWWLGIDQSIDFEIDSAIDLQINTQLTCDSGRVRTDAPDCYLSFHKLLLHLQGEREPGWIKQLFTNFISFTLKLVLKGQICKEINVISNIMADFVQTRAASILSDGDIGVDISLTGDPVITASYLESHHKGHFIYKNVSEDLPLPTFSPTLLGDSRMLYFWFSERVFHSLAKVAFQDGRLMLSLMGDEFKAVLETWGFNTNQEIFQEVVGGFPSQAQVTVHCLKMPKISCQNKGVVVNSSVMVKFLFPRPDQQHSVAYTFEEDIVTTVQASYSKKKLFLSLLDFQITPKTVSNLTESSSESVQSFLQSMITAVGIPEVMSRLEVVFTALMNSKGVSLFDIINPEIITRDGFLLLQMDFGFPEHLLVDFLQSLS
Put plainly: Inhibition of recombinant human CETP-mediated transfer of [3H]CE from HDL to LDL.
On to `OC(CN(Cc1cccc(C(F)(F)F)c1)c1cccc(F)c1)C(F)(F)F` (stereo not drawn), for which the IC50 stood at 40 µM.
The same measure, in the same setting: in the case of `COc1cc(N(Cc2cccc(SC(F)(F)F)c2)C[C@@H](O)C(F)(F)F)cc(OC)c1OC` it was 5 µM; in that of `OC(CN(Cc1ccccc1)c1cccc(F)c1)C(F)(F)F` (stereo not drawn), > 100 µM; in that of `Cc1cccc(CN(CC(O)C(F)(F)F)c2cccc(F)c2)c1` (stereo not drawn), > 100 µM.
For `OC(CN(Cc1ccccc1C(F)(F)F)c1cccc(F)c1)C(F)(F)F` (stereo not drawn), the half-maximal inhibitory concentration (IC50) was > 100 µM.
On to `OC(CN(Cc1cccc(C(F)(F)F)c1)c1ccccc1)C(F)(F)F` (stereo not drawn), for which the IC50 stood at 15 µM.
`OC(CN(Cc1ccc(OC(F)(F)F)cc1)c1cccc(Oc2ccccc2)c1)C(F)(F)F` (stereo not drawn): the IC50 was determined as 4 µM.

A further experiment concerns the target T1, Cholesteryl ester transfer protein. Put plainly: Tested for inhibiting CETP-mediated transfer of [3H]-CE from HDL to LDL in vitro under buffered assay conditions in human serum. The format is cell-free.
For `OC(CN(Cc1cccc(C(F)(F)F)c1)c1cccc(F)c1)C(F)(F)F` (stereo not drawn), the IC50 is > 200 µM.
